Here are results for 3 molecules from paper PMC6362118, “Pharmacophore-guided discovery of CDC25 inhibitors causing cell cycle arrest and tumor regression” (Scientific Reports, 2019).

In one series the test system is zebrafish embryos. It is filed as in vivo. The note with it: 10 µM (effective dose). The protocol:
(§1) Implantation of HCT116 cells into zebrafish embryos were carried out essentially as previously described. Briefly, HCT116 cells were cultured in McCoy’s medium supplemented with 10% FCS and penicillin/streptomycin until ~80% confluence, then labeled for 30 min at 37 °C in 6 μg/mL 1,1′-dioctadecyl-3,3,3′,3′-tetramethylindocarbocyanine perchlorate (DiI, Sigma) in PBS followed by washing 3x in PBS. Labeled cells were implanted in the perivitelline space of 48 hours post-fertilization (hpf) wildtype (AB) zebrafish embryos, kept from the 1-cell stage in 1-phenyl-2-thiourea (PTU)-containing E3-water. […] As control, embryos were incubated in PTU-E3 with 0.1% DMSO (vehicle). Tumor-bearing embryos were incubated at 36 °C for three days and the change in tumor volume was evaluated as the size of the tumors at three days post-implantation (3 dpi) relative to the size immediately after implantation (0 dpi). Metastasis was evaluated at 3 dpi as the number of tumor cells present in the caudal hematopoietic plexus, the main metastatic site for tumors implanted in the perivitelline space.

In the next series the test system is PTPN4 (MEG1). Nature of the series: Compound profiling, phosphatase panel (Eurofins). As to conditions: relative to DMSO. The format is biochemical. An excerpt: (§2) 125 Compound profiling - Selected compounds were profiled against a panel of protein
(§3) 126 phosphatases at Eurofins Pharma Discovery Services Ltd., Dundee, UK.

The subject of another series is PTPN11 (SHP-2). Kind of series: Compound profiling, phosphatase panel (Eurofins). The format is biochemical. The note with it: relative to DMSO.
From the text: as §2, §3

In another series the test system is PP1a. Kind of series: Compound profiling, phosphatase panel (Eurofins). The format is biochemical. As to conditions: relative to DMSO.
From the text: as §2, §3

For another series, the system named is PTPRC (CD45). Kind of series: Compound profiling, phosphatase panel (Eurofins). The format is biochemical. As to conditions: relative to DMSO.
From the text: as §2, §3

For a further series, the system named is PTPN2 (TCPTP). Kind of series: Compound profiling, phosphatase panel (Eurofins). The format is biochemical. The note with it: relative to DMSO.
From the text: as §2, §3

In a further series the test system is DUSP22. Kind of series: Compound profiling, phosphatase panel (Eurofins). It is filed as biochemical. The note with it: relative to DMSO.
From the text: as §2, §3

For the next series, the system named is PTPN7 (HePTP). Kind of series: Compound profiling, phosphatase panel (Eurofins). It is filed as biochemical. The note with it: relative to DMSO.
From the text: as §2, §3

The next series deals with HeLa cells. Nature of the series: Cell viability assay on HeLa cells. It is filed as cell-based. The note with it: Homo sapiens, 48h treatment. On the procedure:
(§4) 75 Cell culture - Wild-type HeLa and Kyoto HeLa cells stably expressing mCherry-H2B
(§5) 76 were maintained in DMEM+L-Glutamine (Gibco, Life Technologies, USA)
(§6) 77 supplemented with 5% fetal calf serum (FCS) (Gibco) and penicillin-streptomycin (100
78 U/ml - 100 µg/ml) (Gibco). […]
87 Cell viability assays - Compounds viability upon 48h treatment with the compounds was
88 assessed as described 4. Data were plotted with Prism 7® and analyzed by non-linear
89 regression. Comparison of single curve fitting to all data set within an experiment was
90 performed with the extra sum-of-squares F-test to determine P values. […]

A further series concerns HCT116 tumors. Nature of the series: HCT116 tumor xenograft in zebrafish embryos. The format is in vivo. As to conditions: for primary tumor size at day 3 relative to day 0: 10 µM in water, three days (day 2 to day 5); for metastasis (tumor cells in caudal hematopoietic plexus): 10 µM, 3 dpi. The protocol:
as §1

Series [1] has as its system U2OS Tet-OFF cells expressing HA-CDC25A. Kind of series: Cell viability of U2OS Tet-OFF cells overexpressing HA-CDC25A. The note with it: grown in the absence of tetracycline (HA-CDC25A induced). The format is cell-based. On the procedure:
65 Enzymatic assays - CDC25A, CDC25B and CDC25C were appropriately diluted in 10
66 mM Tris-HCl pH 8.0, 50 mM NaCl and assayed in 20 mM Tris-HCl pH 8.0, 75 mM
67 NaCl, 0.5 mM EGTA, 1 mM DTT, 0.1 mg/ml BSA and defined concentrations of
68 compounds. Reactions were started by addition of the substrate OMFP (0.1 mM). Assays
69 were carried out at room temperature in duplicate or triplicate using transparent-bottom,
70 V-shaped 96 well plates and read at defined intervals on a Molecular Devices
71 SpectraMax microplate reader (ex: 490 nm / em: 525 nm). IC50 and kinetic parameters
72 calculated from Lineweaver-Burk double-reciprocal plots of the data were obtained using
73 GraphPad Prism software.
as §4, §5, §6
78 U/ml - 100 µg/ml) (Gibco). A549 and Colo741 were grown and maintained like HeLa
79 cells but with 10% FCS. HCT116 were maintained in McCoy’s medium supplemented
80 with 10% FCS and penicillin-streptomycin. U2OS-Tet-OFF cells expressing HA-CDC25
81 were grown and maintained in DMEM+L-Glutamine, 10% Tet-free FCS and penicillin- […]
88 assessed as described 4. Data were plotted with Prism 7® and analyzed by non-linear […]

As to `O=C1C=C(c2ccc(O)cc2O)C(=O)c2c(O)cccc21` [UPD-140, 2-(2′,4′-dihydroxyphenyl)-8-hydroxy-1,4-naphthoquinone], the “tolerability / overt toxicity” value in the series on zebrafish embryos is “well tolerated”. The “remaining activity (%)” value in the series with PTPN4 (MEG1) (UPD-140 1.5 µM) is on record as 87 ± 1%; in the series with PTPN11 (SHP-2) (UPD-140 1.5 µM), 96 ± 2%; in the series on PP1a (UPD-140 1.5 µM), 89 ± 2%; with PTPRC (CD45) (UPD-140 1.5 µM) it was 103 ± 2%; with PTPN2 (TCPTP) (UPD-140 1.5 µM) it was 87 ± 8%; in the series on DUSP22 (UPD-140 1.5 µM), 90 ± 4%. Also, in the series on PTPN7 (HePTP) (UPD-140 1.5 µM), the “remaining activity (%)” value worked out at 95%. The IC50 (in general, the concentration that gives 50% inhibition) in the series on HeLa cells amounted to 1200 nM. Moreover, the “primary tumor size at day 3 relative to day 0” value with HCT116 tumors is given as “reduced to approximately half the size of the initial volume”. Moreover, the “metastasis (tumor cells in caudal hematopoietic plexus)” value with HCT116 tumors is given as “reduction in metastasis achieved borderline significance”.
As for `O=C1C(c2ccc(O)cc2O)=CC(=O)c2c(O)cccc21` [UPD-176, 5-hydroxy-2-(2,4-dihydroxyphenyl)naphthalene-1,4-dione], the “tolerability / overt toxicity” value in the series on zebrafish embryos is “well tolerated”. In [1], the “sensitivity of CDC25A overexpressing cells (viability)” value is “remained sensitive”. This molecule also came in with an IC50 in the series on HeLa cells of 1080 nM. Besides, in the series with HCT116 tumors, the “primary tumor size at day 3 relative to day 0” value is given as “tendency towards tumor regression, although not significant” and the “metastasis (tumor cells in caudal hematopoietic plexus)” value is on record as “did not appear to be significant”.
Take `COc1cccc(SC2=CC(=O)c3cccc(O)c3C2=O)c1` [UPD-795, 2-(3-methoxyphenylthio)-8-hydroxynaphthalene-1,4-dione]: the “remaining activity (%)” value is 94 ± 1% in the series on PTPN4 (MEG1) (UPD-795 1 µM); 91 ± 14% with PTPN11 (SHP-2) (UPD-795 1 µM); 88 ± 1% with PP1a (UPD-795 1 µM); 97 ± 2% in the series with PTPRC (CD45) (UPD-795 1 µM); 99 ± 2% with PTPN2 (TCPTP) (UPD-795 1 µM); 92 ± 3% in the series on DUSP22 (UPD-795 1 µM). In addition, the “remaining activity (%)” value in the series on PTPN7 (HePTP) (UPD-795 1 µM) was 87 ± 2%.
